pIC50: −log10 of the molar value. Read-outs that look alike come from different tables or passages of the source.
How the values were obtained:
hpol κ [1] = molecular target: T1, hpol κ (Homo sapiens, UniProt Q9UBT6); assay: Fluorescence-based (TAMRA/BHQ strand displacement) DNA polymerase activity assay
T1 sequence (Q9UBT6 19-526): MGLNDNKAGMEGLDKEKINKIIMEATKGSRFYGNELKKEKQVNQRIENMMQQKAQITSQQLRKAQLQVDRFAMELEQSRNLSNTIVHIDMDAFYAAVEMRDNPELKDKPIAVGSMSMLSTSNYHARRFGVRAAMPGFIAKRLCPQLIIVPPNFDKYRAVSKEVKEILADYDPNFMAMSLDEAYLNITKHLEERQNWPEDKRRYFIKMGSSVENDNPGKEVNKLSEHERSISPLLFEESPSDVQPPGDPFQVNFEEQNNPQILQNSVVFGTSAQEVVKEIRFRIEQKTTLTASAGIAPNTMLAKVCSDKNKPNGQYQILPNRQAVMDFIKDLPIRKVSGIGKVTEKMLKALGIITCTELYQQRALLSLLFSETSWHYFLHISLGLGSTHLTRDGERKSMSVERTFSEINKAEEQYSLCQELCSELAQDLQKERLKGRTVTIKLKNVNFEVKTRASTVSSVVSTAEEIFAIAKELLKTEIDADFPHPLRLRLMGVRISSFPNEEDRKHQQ

hpol κ [2] = molecular target: T1, hpol κ; assay: Gel-based primer extension assay; type: biochemical; design: hpol κ (residues 19-526); made in house; settings: 10 μM; 1 nM hpol κ
hpol λ = molecular target: T2, hpol λ (Homo sapiens, UniProt Q9UGP5); assay: Fluorescence-based polymerase assay, other pol families; type: biochemical; settings: 10 μM; 10 nM hpol λ (X-family)
T2 construct: hpol λ, residues 1-325; gift of Dr. Miguel Garcia-Diaz (Stony Brook University)
T2 sequence (Q9UGP5 242-575 limits assumed): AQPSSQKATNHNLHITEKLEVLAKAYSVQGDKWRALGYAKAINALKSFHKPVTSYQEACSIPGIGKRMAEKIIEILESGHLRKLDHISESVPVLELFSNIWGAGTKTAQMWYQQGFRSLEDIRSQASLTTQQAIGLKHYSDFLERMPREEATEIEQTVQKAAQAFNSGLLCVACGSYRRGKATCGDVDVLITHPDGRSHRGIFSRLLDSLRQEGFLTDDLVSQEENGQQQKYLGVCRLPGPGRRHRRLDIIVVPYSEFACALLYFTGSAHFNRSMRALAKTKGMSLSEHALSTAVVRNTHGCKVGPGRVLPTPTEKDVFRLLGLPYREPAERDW

hpol β = molecular target: T3, hpol β (Homo sapiens, UniProt P06746); assay: as above; type: biochemical; settings: 10 μM; 1 nM hpol β (X-family)
T3 construct: gift of Dr. Samuel Wilson (NIEHS)

Dpo1 = molecular target: T4, Dpo1 (Saccharolobus solfataricus, UniProt P26811); assay: as above; type: biochemical, Sulfolobus solfataricus; settings: 10 μM; 25 nM Dpo1 (B-family)
T4 construct: made in house
T4 sequence (P26811 1-882): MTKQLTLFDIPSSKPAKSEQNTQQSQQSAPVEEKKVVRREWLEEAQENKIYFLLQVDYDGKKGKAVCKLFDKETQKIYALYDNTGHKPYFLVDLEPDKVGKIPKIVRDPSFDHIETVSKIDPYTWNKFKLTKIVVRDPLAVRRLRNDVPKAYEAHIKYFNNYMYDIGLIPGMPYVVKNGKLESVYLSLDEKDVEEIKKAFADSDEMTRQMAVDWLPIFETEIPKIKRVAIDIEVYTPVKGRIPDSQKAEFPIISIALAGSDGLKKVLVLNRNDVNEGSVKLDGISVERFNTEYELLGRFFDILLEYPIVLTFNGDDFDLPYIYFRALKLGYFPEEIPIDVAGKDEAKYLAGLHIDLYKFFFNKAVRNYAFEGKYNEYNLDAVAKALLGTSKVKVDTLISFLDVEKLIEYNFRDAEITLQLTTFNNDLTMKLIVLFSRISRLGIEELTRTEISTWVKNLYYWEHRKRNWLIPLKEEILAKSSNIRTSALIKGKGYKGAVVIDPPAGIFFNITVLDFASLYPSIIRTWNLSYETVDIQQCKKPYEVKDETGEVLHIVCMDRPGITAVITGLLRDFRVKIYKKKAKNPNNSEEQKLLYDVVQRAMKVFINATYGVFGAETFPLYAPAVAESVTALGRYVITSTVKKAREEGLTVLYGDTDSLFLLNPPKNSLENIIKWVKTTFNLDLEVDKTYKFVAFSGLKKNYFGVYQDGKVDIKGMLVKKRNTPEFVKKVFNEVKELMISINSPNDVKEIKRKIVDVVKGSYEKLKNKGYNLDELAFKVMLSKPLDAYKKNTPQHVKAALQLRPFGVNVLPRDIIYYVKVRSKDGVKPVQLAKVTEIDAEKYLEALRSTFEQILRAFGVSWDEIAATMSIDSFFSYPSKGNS

NT2 cells = assay: Clonogenic survival assay; type: cell-based, human; settings: IAG-10 and TMZ in combination
T98G cells = assay: Clonogenic survival assay; type: cell-based, human
T98G spheroids (GSC) = assay: GSC clonogenic survival assay; type: cell-based; settings: 50 nM, 3 hours
Method: GSC clonogenic survival assay. Spheroids proficient and deficient in hpol κ were cultured for 12 days as described above before treating with PNR 7-48 (50 nM) for 3 hours. Spheroids were harvested, titrated into single cell populations and counted via trypan blue exclusion assay. Around 500 viable cells were plated per well in a 6 well dish and allowed to recover for 8-10 days in MEM with 10% FBS. Cells were fixed with 4% formaldehyde (v/v) for 30 min followed by staining with crystal violet (Sigma Aldrich, St. Louis, MO) for 30 min. Total number of colonies were counted using the EVOS microscope, with viable colonies consisting of 25 cells or more. This experiment was done in technical triplicate. As with spheroid growth, clonogenic survival was impeded for T98G cells lacking hpol κ activity (FIG. 11).

Tb pol I = molecular target: T5, Tb pol I (Mycobacterium tuberculosis, UniProt P9WNU5); assay: Fluorescence-based polymerase assay, other pol families; type: biochemical; settings: 10 μM; 10 nM Tb pol I (A-family)
T5 construct: made in house
T5 sequence (P9WNU5 whole entry): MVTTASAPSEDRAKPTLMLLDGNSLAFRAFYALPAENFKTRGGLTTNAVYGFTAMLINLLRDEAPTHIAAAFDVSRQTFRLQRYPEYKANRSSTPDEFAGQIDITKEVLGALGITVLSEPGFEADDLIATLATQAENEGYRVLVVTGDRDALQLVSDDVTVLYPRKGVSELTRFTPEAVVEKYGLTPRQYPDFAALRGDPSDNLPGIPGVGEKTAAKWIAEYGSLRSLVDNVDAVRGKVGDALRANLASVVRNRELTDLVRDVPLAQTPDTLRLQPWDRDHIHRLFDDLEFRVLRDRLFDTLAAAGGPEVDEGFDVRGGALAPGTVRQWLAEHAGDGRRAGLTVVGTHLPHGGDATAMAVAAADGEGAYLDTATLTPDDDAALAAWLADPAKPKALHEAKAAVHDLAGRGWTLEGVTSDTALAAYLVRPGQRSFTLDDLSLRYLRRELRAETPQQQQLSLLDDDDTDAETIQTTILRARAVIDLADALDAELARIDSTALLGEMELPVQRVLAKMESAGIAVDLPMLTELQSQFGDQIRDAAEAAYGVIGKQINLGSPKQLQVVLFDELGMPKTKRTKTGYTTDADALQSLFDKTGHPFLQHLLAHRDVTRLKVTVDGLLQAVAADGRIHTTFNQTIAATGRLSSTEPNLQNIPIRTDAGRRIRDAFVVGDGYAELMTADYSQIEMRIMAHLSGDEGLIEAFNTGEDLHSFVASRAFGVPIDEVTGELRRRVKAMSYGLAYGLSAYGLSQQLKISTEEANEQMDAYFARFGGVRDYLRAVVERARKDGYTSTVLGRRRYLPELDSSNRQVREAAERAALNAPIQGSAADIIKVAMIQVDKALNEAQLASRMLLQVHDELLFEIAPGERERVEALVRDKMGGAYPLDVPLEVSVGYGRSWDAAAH

Cl.[H]/N=C(\N)NN=Cc1cn(C(=O)c2cccc3ccccc23)c2ccc(Cl)cc12 [IAG-10, (E)-2-((1-(1-naphthoyl)-5-chloro-1H-indol-3-y1)methylene)hydrazine-1-carboximidamide hydrochloride]
polymerase activity relative to DMSO control (hpol κ [1]; 10 μM, 25 nM hpol κ, comparison with A, B, X family pols): only hpol κ activity was inhibited
% Activity Mean (hpol κ activity) (hpol κ [1]; IAG compounds, 40 μM, rate relative to DMSO control, three independent experiments): 0.0%
specificity for hpol κ over η (hpol κ [1]; after altering the reaction conditions (lower enzyme and DNA)): ~ 30 fold
specificity for hpol κ over η (hpol κ [1]; before altering the reaction conditions): ~ 2 fold
pIC50 (hpol κ [1]; read-out: IC50 against hpol κ, structure-activity study, 1 nM hpol κ, 50 nM DNA): 5.14
pIC50 (hpol κ [1]; read-out: IC50 for inhibition of hpol κ, 0.5 nM DNA, 0.1 nM hpol κ, 95% confidence interval in parentheses): 6.14
pIC50 (hpol κ [1]; read-out: IC50 for inhibition of hpol κ, 1 nM DNA, 95% confidence interval in parentheses): 5.96
pIC50 (hpol κ [1]; read-out: IC50 for inhibition of hpol κ, 2.5 nM DNA, 95% confidence interval in parentheses): 5.85
pIC50 (hpol κ [1]; read-out: IC50 for inhibition of hpol κ, 10 nM DNA, 95% confidence interval in parentheses): 5.05
pIC50 (hpol κ [1]; read-out: IC50 for inhibition of hpol κ, 25 nM DNA, 95% confidence interval in parentheses): 5.05
pIC50 (hpol κ [1]; read-out: IC50 for inhibition of hpol κ, 50 nM DNA, 95% confidence interval in parentheses): 5.14
turnover number (kcat), hpol κ-catalyzed dTTP insertion (hpol κ [1]; steady-state kinetics with varying inhibitor concentration): sharp decrease
polymerase activity relative to DMSO control (hpol κ [2]): only hpol κ was inhibited
polymerase activity relative to DMSO control (hpol λ): only hpol κ activity was inhibited
polymerase activity relative to DMSO control (hpol β): only hpol κ activity was inhibited
polymerase activity relative to DMSO control (Dpo1): only hpol κ activity was inhibited
colony formation ability, combination (NT2 cells): did not exhibit changes in colony formation ability
combination index (TMZ and IAG-10, Chou-Talalay) (T98G cells; IAG-10 50 nM + TMZ): 0.09
decrease of cell proliferation (clonogenic) compared to TMZ alone (T98G cells; IAG-10 50 nM along with TMZ, 3 hrs): ~ 10 fold
decrease in GBM-derived cell proliferation compared to NT2 cells (T98G cells; IAG-10 alone, concentrations above that used for combination): ~ 2 fold
GSC differentiation (T98G spheroids (GSC)): inhibit GSC differentiation
polymerase activity relative to DMSO control (Tb pol I): only hpol κ activity was inhibited

Source: US12685733B2, “Indole molecules and use thereof in the inhibition of DNA polymerases” (BioVentures, LLC, priority 2019, dated 2026)
